Test results reported in PubChem BioAssay AID179 (DTP/NCI, 2004).
Where “and” joins values, the source holds several entries; their conditions need not be identical. Equal entries are not always repeated. Calls of active or inactive are those of the source.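 Rule for the calls: active = compounds giving half or more protection of infected cells from virus-caused growth loss, again on retest; inactive = the rest.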

System: CEM cells HIV-1 protection, formazan growth assay
Assay: NCI AIDS Antiviral Assay
Settings: for IC50: measured here: growth of uninfected CEM cells
Outline: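 Human CEM cells, uninfected and HIV-1-infected, exposed to five drug concentrations; growth measured by soluble formazan assay and scored as percent protection from infection, with protecting compounds retested.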

Compound | EC50 | IC50 | outcome
CCN(CC)CCNCc1cc(Cl)cc2c1OCOC2 | > 200 µM | > 200 µM | –
C[N+]1=C(c2cccnc2/C=N/O)OCC1(C)C | > 692 µM | 417 µM | –
CN(C)c1ccc(C2CC(=O)CC(c3ccc(N(C)C)cc3)C23C(=O)NC(=O)NC3=O)cc1 (stereo not given) | > 25.1 µM | > 25.1 µM | –
COc1ccccc1OC(=O)/C=C/c1ccccc1 | > 200 µM | 3.72 µM | –
CN1CC=C(OP(=O)(NCc2ccccc2)N(CCCl)CCCl)CC1 (stereo not given) | > 200 µM | 135 µM | –
CCOC(=O)Cn1c(=O)n(C)c(=O)c2c1ncn2Cc1ccccc1 | > 724 µM | 427 µM | –
O=c1oc2ccccc2c(O)c1C(c1ccco1)c1c(O)c2ccccc2oc1=O | > 200 µM | 33.9 µM | –
c1ccc([P+](Cc2ccccc2C[P+](c2ccccc2)(c2ccccc2)c2ccccc2)(c2ccccc2)c2ccccc2)cc1 | > 200 µM | 129 µM and 107 µM | –
CCOC(=O)NC(Nc1ncccn1)(C(F)(F)F)C(F)(F)F | > 191 µM | 186 µM | –
NC(=Nc1ccc(Br)cc1)/N=C(/N)Nc1cccc(S(=O)(=O)Nc2ncc(Cl)cn2)c1 | > 200 µM | > 200 µM | –
COc1ccc(NC(=O)Nc2onc(C)c2C)c(Cl)c1 | > 191 µM | 151 µM | –
CCOC(=O)CC1NC(=O)CS1 (stereo not given) | > 138 µM | > 138 µM | –
CC(C)(Oc1ccc(C(=O)c2ccc(Cl)cc2)cc1Cl)C(=O)N1CCN(c2ccccc2)CC1 | > 20 µM | > 20 µM | –
CCOC(=O)C(NC(=O)c1ccccc1)(Nc1ccc(S(=O)(=O)Nc2cc(C)on2)cc1)C(F)(F)F (stereo not given) | > 200 µM | > 200 µM | –
O=C(CP(=O)(O)O)NC(CC(=O)OCc1ccccc1)C(=O)OCc1ccccc1 (stereo not given) | > 100 µM | > 100 µM | –
CC12CC(=O)Nc3ccccc3N1C(c1ccccc1)=NO2 (stereo not given) | > 200 µM | > 200 µM | –
COc1ccc(CCN2CCc3c(C)c(C#N)c4nc5ccccc5n4c32)cc1OC | > 200 µM | 53.7 µM | –
CS(=N)(=O)CCC(N)P(=O)(O)O (stereo not given) | > 200 µM | > 200 µM | –
Cc1ccc(S(=O)(=O)Nn2c(O)c(C#N)c(-c3ccc([N+](=O)[O-])cc3)c(C#N)c2=O)cc1 | > 200 µM | > 200 µM | –
Nc1nccc(NCC2(CO)CCC2)n1 | > 200 µM | > 200 µM | –
O=c1[nH]c(N/N=C\C(=N/Nc2nc3ccccc3c(=O)[nH]2)C(O)C(O)C(O)CO)nc2ccccc12 (stereo not given) | > 200 µM | > 200 µM | –
O=C(/C=C\c1ccc(O)c(O)c1)OC1C(O)CC(OC(=O)/C=C/c2ccc(O)c(O)c2)(C(=O)O)CC1O (stereo not given) | > 200 µM | 30.2 µM | –
CCN(CC)CC(=O)NC1c2ccccc2Sc2c(C)cccc21 (stereo not given) | > 148 µM | 60.3 µM | –
Cc1cc(C)cc(-n2c3nc(=O)n(C)c(=O)c-3nc3ccccc32)c1 | – | – | inactive
Cc1cc2c(cc1CO)N1Cc3cc(C)c(CO)cc3N(C2)C1 | – | – | inactive
Nc1nc(N)c(N=Nc2ccc(S(=O)(=O)NC(=O)c3ccccc3)cc2)c(=O)[nH]1 | > 200 µM | > 200 µM | –

Compound | EC50 | IC50 | outcome
CCNc1ncnc2sc(SCc3ccccc3)nc12 | > 200 µM | > 200 µM | –
C[C@H]1C2=CC(=O)CC[C@@](C)(O2)[C@H]2CC[C@]3(C)[C@@H](O)CC[C@H]3[C@H]12 | > 589 µM | 234 µM | –
CCN(CCO)c1ccc(N=O)cc1 | > 200 µM | 11.5 µM | –
CC1=N/C(=C\c2ccc(Br)cc2)C(=O)O1 | > 135 µM | > 135 µM | –
Cc1cn(C2CC3C(COC(=O)N3O)O2)c(=O)[nH]c1=O (stereo not given) | 50.1 µM | > 200 µM | –
CCOC(=O)C(c1ccccc1)c1cccc(C(C(=O)OCC)c2ccccc2)n1 (stereo not given) | > 17.8 µM | > 17.8 µM | –
O=C1C=C(N2CCN(CCO)CC2)C(=O)c2c(N3CCN(CCO)CC3)cc(N3CCN(CCO)CC3)nc21 | > 158 µM | > 158 µM | –
COc1c(Cl)cc(C(=CCCCCN(C(=O)C=C(c2cc(Cl)c(OC)c(C(=O)O)c2)c2cc(Cl)c(OC)c(C(=O)O)c2)[C@H]2CC[C@@]3(C)[C@@H](CC[C@@H]4[C@@H]3CC[C@]3(C)[C@@H](C(C)CCCC(C)C)CC[C@@H]43)C2)c2cc(Cl)c(OC)c(C(=O)O)c2)cc1C(=O)O (stereo not given in full) | 12.9 µM | 81.3 µM | –
C[C@@H]1S[C@H](c2c(F)cccc2F)n2c1nc1ccccc12 | 29.5 µM | 43.7 µM | –
N/N=C1\C(=O)N(c2ccc(Cl)cc2Cl)C(=O)C(=O)C1c1nc2ccccc2o1 (stereo not given) | – | – | inactive
C#CCn1c(=O)c2ccccc2n(CC#C)c1=O | > 200 µM | > 200 µM | –
CC1=CC(C)N(C(=O)c2ccc(Cl)cc2)CCN1C(=O)c1ccc(Cl)cc1 (stereo not given) | > 44.7 µM | 33.9 µM | –
CCCCCCNC(=O)/C(=C\c1ccc(Cl)cc1Cl)NC(=O)c1ccccc1 | > 200 µM | > 200 µM | –
CC(C)CCCC(C)C1CCC2C3CC([N+](=O)[O-])=C4CC(O)CCC4(C)C3CCC12C (stereo not given) | > 575 µM | 251 µM | –
O=C1c2cc([N+](=O)[O-])ccc2NC1(c1c[nH]c2ccccc12)c1c[nH]c2ccc(Br)cc12 (stereo not given) | > 200 µM | 26.3 µM | –
COC(=O)C1=C(C)C(=O)[C@H]2C(C(=O)OC)CCCC[C@@H]12 (stereo not given in full) | > 200 µM | 129 µM | –
O=c1nc2c(c(-c3ccc(Br)cc3)[nH]1)COC/C2=C\c1ccc(Br)cc1 | > 200 µM | 75.9 µM | –
CC1(C)Oc2cc3oc(C(=O)O)cc(=O)c3cc2-c2ccc(O)cc21 | > 490 µM | 347 µM | –
NC(CCCC(N)P(=O)(O)c1ccccc1)P(=O)(O)c1ccccc1 (stereo not given) | > 661 µM | > 661 µM | –
COc1c2c(c(OC)c3c(=O)cc(C/C(=N/NC(=O)C[n+]4ccccc4)C(=O)Nc4cc(C)ccc4C)oc13)OCO2 | > 30.9 µM | > 30.9 µM | –
C(=C/[PH+](c1ccccc1)c1ccccc1)/[PH+](c1ccccc1)c1ccccc1.C(=C/[PH+](c1ccccc1)c1ccccc1)/[PH+](c1ccccc1)c1ccccc1.C(=C/[PH+](c1ccccc1)c1ccccc1)/[PH+](c1ccccc1)c1ccccc1.[Pt] | > 5.25 µM | 3.24 µM | –
CC(C)(C)c1ccn[nH]1.CC(C)(C)c1ccn[nH]1.[Cl-].[Cl-].[O]=[V][O-] | > 200 µM | 35.5 µM | –
CCOC(=O)c1c(C)n(C)c2c1nnc1ccccc12 | > 200 µM | 129 µM | –
COC(=O)c1c(C)cccc1/C=C1/Cc2c(C)cccc2C1=O | > 200 µM | > 200 µM | –
O=C1CCC(c2ccccc2)C(O)(C(=O)O)C1 (stereo not given) | > 389 µM | > 389 µM | –
S=c1sc2c(s1)SCCCCSCCCCSc1sc(=S)sc1SCCCCSCCCCS2 | > 200 µM | > 200 µM | –

Compound | EC50 | IC50 | outcome
COCCN1C2=CCCCC2=Nc2c1nc(N)[nH]c2=O | – | – | inactive
CC(C)(C)C(=O)N(C(=S)OCc1ccccn1)c1ccccc1 | > 200 µM | 40.7 µM | –
CC(=O)OC1C(O[C@H]2CC[C@]34O[C@]35CC[C@]3(C)C(C6(C)CC[C@@H](C(C)(C)O)O6)[C@@H](O)CC3(C)[C@@H]5CC(OC3OC(CO)C(O)C(O)C3O)C4C2(C)C)OCC(O)C1O (stereo not given in full) | 67.6 µM | 302 µM | –
C[N+](C)(CCCn1ccnc1[N+](=O)[O-])CCCn1ccnc1[N+](=O)[O-] | > 200 µM | > 200 µM | –
COc1ccc(S(=O)(=O)O)cc1-n1nc(C(=O)Nc2ccccc2)n[n+]1-c1cc(S(=O)(=O)[O-])ccc1OC | > 200 µM | > 200 µM | –
NCC1=NCCN1 | > 200 µM | > 200 µM | –
CC(C)CCCC(C)[C@H]1CC[C@H]2[C@@H]3CC[C@H]4C[C@@H](CCC=C(c5cc(Cl)c(OCc6cccc(C(=O)O)c6)c(C(=O)O)c5)c5cc(Cl)c(OCc6cccc(C(=O)O)c6)c(C(=O)O)c5)CC[C@]4(C)[C@H]3CC[C@]12C (stereo not given in full) | 5.5 µM and 1.78 µM | > 200 µM | –
C=C(C)[C@@H]1CC[C@@]2(C)[C@H]1[C@H]1CCC3[C@@]4(C)CC[C@H](O)C(C)(C)[C@@H]4CC[C@@]3(C)[C@]1(C)C[C@@H]2O (stereo not given in full) | > 100 µM | 66.1 µM | –
c1cc(-c2ncc3ccncc3n2)ccn1 | > 64.6 µM | > 64.6 µM | –
COc1ccc(-c2oc3ccccc3c(=O)c2O)cc1OC | > 200 µM | 138 µM | –
NC(CS)=NCCc1nc2ccccc2[nH]1 | > 200 µM | 110 µM | –
c1ccc(Cc2nnc3n2CCC(c2ccccc2)S3)cc1 (stereo not given) | > 200 µM | > 200 µM | –
CCOC(=O)CCC(NC(=O)OCc1ccccc1)C(=O)NC(CCC(=O)OCC)C(=O)NC(CCC(=O)OCC)C(=O)NC(CCC(=O)OCC)C(=O)NC(CCC(=O)OCC)C(=O)NC(CCC(=O)OCC)C(=O)NC(CCC(=O)OCC)C(=O)OCC (stereo not given) | > 100 µM | 30.2 µM | –
CN1C(=O)/C(=N\n2c(-c3ccccc3)nc3ccccc3c2=O)c2ccccc21 | > 200 µM | > 200 µM | –
COC(=O)Cc1c2n(c3ccccc13)C(=O)N1c3ccccc3C(CC(=O)OC)C21 (stereo not given) | > 200 µM | > 200 µM | –
Nc1ccc(C2=NC(C(=O)O)C=C2)cc1 (stereo not given) | > 200 µM | > 200 µM | –
COc1ccc(C(=O)C(C(=O)C(=O)Nc2ccc(Cl)c(Cl)c2)c2ccc(OC)cc2)cc1 (stereo not given) | > 75.9 µM | > 75.9 µM | –
COc1ccc2c(c1O)C(=O)C(CCC(=O)O)CC2 (stereo not given) | – | – | inactive
O=C(O)c1ccc(P(=O)(O)c2ccc(C(=O)O)cc2Br)c(Br)c1 | > 200 µM | > 200 µM | –
COC(=O)c1cc(C(=C(Cl)Cl)c2cc(C(=O)OC)c(OC)c(Br)c2C)c(C)c(Br)c1OC | > 200 µM | 79.4 µM | –
CCP(=O)(CC)C(Cl)(Cl)C(=O)NC | > 200 µM | > 200 µM | –
COC(=O)/C=c1\s/c(=C\C(=O)OC)c2ccccc12 | – | – | inactive
CCOC(=O)C(C(=O)OCC)C(C(=O)OCC)C(=O)OCC | > 200 µM | > 200 µM | –
C=CCCCCO/N=C/c1c2c(O)c3c(O)c(C)c4c(c3c1O)C(=O)C(C)(O/C=C/C(OC)C(C)C(OC(C)=O)C(C)C(O)C(C)C(O)C(C)/C=C/C=C(\C)C(=O)N2)O4 (stereo not given) | > 200 µM | 7.41 µM | –
Cc1ccc(/C(O)=C/C(=O)C(=O)NC23CC4CC(CC(C4)C2)C3)cc1 | > 200 µM | 77.6 µM | –
O=C(O)CCSSCCCCS(=O)O | > 200 µM | 2.04 µM | –
